For 35 compounds, ΔTm results are on record in ChEMBL document CHEMBL1145498, “A systematic interaction map of validated kinase inhibitors with Ser/Thr kinases” (Proc Natl Acad Sci U S A, 2007).

What is called ΔTm is the shift of the melting midpoint relative to a reference.

In test [1] the target is Dual specificity protein kinase CLK1 (Homo sapiens) (UniProt P49759).
Test [2] deals with T1, 3-phosphoinositide-dependent protein kinase 1 (Homo sapiens) (UniProt O15530).
T1 sequence (whole entry): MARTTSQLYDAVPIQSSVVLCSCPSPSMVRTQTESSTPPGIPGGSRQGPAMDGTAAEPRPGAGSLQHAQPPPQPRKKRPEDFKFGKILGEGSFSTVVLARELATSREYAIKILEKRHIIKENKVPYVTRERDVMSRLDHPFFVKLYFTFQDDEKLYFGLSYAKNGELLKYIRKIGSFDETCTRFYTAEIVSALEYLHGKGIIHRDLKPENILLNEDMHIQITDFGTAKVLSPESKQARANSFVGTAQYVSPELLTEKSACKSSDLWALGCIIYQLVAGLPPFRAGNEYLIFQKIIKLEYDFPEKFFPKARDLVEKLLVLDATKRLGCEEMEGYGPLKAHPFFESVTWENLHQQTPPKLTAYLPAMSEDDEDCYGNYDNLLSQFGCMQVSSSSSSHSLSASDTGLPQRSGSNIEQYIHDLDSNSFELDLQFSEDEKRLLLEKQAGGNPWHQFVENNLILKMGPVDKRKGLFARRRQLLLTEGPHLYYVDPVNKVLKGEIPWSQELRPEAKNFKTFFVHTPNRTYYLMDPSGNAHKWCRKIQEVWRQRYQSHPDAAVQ

The target of test [3] is STE20-like serine/threonine-protein kinase (Homo sapiens) (UniProt Q9H2G2).
Sequence of STE20-like serine/threonine-protein kinase (Homo sapiens) (Q9H2G2 whole entry, looked up): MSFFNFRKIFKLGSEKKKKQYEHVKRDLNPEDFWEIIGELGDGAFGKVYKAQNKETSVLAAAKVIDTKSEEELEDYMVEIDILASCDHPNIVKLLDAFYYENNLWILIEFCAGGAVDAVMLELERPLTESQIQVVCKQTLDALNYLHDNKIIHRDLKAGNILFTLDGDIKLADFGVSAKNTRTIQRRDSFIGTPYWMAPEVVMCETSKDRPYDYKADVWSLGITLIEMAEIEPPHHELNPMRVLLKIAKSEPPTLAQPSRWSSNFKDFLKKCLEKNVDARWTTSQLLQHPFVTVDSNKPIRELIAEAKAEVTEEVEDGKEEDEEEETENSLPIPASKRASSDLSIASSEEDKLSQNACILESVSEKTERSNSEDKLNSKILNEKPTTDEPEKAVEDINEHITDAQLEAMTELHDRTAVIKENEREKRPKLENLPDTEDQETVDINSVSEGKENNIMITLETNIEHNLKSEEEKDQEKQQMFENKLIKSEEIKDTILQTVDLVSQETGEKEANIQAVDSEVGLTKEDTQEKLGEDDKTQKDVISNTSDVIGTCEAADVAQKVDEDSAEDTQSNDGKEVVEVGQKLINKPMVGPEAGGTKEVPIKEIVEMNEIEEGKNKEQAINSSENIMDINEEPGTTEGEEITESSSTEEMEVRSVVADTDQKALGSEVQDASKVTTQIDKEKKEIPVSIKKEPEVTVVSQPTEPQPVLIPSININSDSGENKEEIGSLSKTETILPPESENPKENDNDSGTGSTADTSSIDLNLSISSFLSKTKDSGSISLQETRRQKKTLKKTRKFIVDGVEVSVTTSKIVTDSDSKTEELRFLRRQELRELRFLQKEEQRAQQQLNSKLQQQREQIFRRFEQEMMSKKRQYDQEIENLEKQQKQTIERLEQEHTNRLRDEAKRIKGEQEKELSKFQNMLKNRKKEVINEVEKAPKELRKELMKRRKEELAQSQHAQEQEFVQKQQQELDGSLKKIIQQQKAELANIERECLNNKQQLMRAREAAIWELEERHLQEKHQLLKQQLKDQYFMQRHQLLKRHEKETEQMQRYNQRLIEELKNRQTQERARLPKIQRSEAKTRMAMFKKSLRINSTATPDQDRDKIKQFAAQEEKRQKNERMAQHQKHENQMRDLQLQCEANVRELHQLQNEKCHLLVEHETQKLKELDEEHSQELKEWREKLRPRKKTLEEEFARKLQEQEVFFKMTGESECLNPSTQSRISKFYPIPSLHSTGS
Test [4] concerns the target T2, Serine/threonine-protein kinase VRK3 (Homo sapiens) (UniProt Q8IV63).
T2 sequence (whole entry): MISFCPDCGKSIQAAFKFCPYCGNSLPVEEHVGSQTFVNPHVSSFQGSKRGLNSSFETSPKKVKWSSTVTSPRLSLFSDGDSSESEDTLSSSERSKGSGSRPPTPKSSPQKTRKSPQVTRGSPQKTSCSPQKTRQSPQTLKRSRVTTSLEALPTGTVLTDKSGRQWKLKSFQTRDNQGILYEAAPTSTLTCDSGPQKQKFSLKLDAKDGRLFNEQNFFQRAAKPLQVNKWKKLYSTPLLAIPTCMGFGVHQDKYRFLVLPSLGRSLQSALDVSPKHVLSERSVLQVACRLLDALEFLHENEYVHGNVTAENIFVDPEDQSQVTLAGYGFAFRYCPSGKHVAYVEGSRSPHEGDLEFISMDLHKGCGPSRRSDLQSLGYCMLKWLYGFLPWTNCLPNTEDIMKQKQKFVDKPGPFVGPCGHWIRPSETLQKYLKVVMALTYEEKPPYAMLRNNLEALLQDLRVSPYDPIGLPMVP

Molecules are shown by their SMILES.

Sequence of Dual specificity protein kinase CLK1 (Homo sapiens) (P49759 whole entry, looked up): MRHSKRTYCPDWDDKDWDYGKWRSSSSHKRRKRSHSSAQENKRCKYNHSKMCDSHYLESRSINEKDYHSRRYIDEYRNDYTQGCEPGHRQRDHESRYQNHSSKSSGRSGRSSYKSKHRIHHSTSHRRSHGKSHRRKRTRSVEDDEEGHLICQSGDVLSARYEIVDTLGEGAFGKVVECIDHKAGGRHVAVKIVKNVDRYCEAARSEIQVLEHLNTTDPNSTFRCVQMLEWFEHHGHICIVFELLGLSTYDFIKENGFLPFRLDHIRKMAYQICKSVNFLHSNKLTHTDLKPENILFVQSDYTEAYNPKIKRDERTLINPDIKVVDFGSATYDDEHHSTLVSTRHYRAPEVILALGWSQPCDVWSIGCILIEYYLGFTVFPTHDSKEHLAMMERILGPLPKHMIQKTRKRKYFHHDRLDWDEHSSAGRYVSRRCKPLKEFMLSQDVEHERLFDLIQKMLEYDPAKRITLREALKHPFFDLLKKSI

As for `Cn1cc(C2=C(c3cn(CCCN)c4ccccc34)C(=O)NC2=O)c2ccccc21`, the ΔTm was 8.2 °C in test [1], -0.1 °C in test [2], 7.6 °C in test [3] and 0.9 °C in test [4].

For `O=c1c(-c2ccc(F)cc2)c(-c2ccncc2)[nH]n1-c1ccc(Cl)cc1`, the ΔTm in test [1] is 1 °C; in test [2], -1.2 °C; in test [3], 2.4 °C; in test [4], -1.1 °C.

For `N#C/C(=C\c1ccc(O)c(O)c1)C(=O)NCc1ccccc1`, the ΔTm in test [1] is 1 °C; in test [2] it was 0.5 °C; in test [3], 2.9 °C; in test [4], -0.2 °C.

For the compound `COc1cc2ncnc(Nc3ccc(F)c(Cl)c3)c2cc1OCCCN1CCOCC1`, the shift in melting temperature (ΔTm) in test [1] is 0.7 °C; in test [2], -0.5 °C; in test [3], 7.8 °C; in test [4], 0.6 °C.

`Cn1cc(/C=C2/C(=O)Nc3ccc(S(N)(=O)=O)cc32)c2ccccc21`: the ΔTm in test [1] stood at 4.7 °C; in test [2] it was 0.2 °C; in test [3], 8.4 °C.

In the case of `COC1=C2C[C@@H](C)C[C@H](OC)[C@H](O)[C@@H](C)/C=C(\C)[C@H](OC(N)=O)[C@@H](OC)/C=C\C=C(/C)C(=O)NC(=CC1=O)C2=O`, the ΔTm was 0.6 °C in test [1], 0 °C in test [2], 1.7 °C in test [3] and -0.7 °C in test [4].

On to `COC(=O)[C@]1(O)C[C@@H]2O[C@@]1(C)n1c3ccccc3c3c4c(c5c6ccccc6n2c5c31)C(=O)NC4` (single isomer, unassigned), for which the ΔTm in test [1] is 10.6 °C; in test [2], -0.4 °C; in test [3], 6.3 °C; in test [4] it was -0.2 °C.

For the compound `O=[N+]([O-])c1ccc(-c2nc(-c3ccc(F)cc3)c(-c3ccncc3)[nH]2)cc1`, the shift in melting temperature (ΔTm) in test [1] is -1.2 °C; in test [2] it was -0.1 °C; in test [3], 5.4 °C; in test [4] it was 0.4 °C.

For the compound `CN[C@@H]1CC2O[C@@](C)([C@@H]1OC)n1c3ccccc3c3c4c(c5c6ccccc6n2c5c31)C(=O)NC4`, the ΔTm was -0.7 °C in test [2], 20.1 °C in test [3] and 0.3 °C in test [4].

Regarding `Nc1n[nH]c2nnc(-c3c(-c4ccccc4)nn4ccccc34)cc12`, the thermal shift (ΔTm) in test [1] is 0.7 °C; in test [2] it was 1 °C; in test [3], 0.7 °C.

With `CC(C)n1cnc2c(NCc3ccccc3)nc(NCCCO)nc21`, the ΔTm in test [1] is 2.6 °C; in test [2], 0.1 °C; in test [3] it was 0.4 °C; in test [4] it was -0.3 °C.

`O=C1Nc2ccc(I)cc2/C1=C1/Nc2ccccc2/C1=N\O`: the ΔTm in test [1] is 3.2 °C; in test [2], -0.3 °C; in test [3] it was 3.7 °C; in test [4], 0.4 °C.

`CCOc1cc(/C=C(\C#N)C(N)=O)cc(CSc2ccccc2)c1O`: the ΔTm in test [1] is 0 °C; in test [2], 0 °C; in test [3], 0.5 °C; in test [4], -0.6 °C.

As to `COc1ccc(CNC(=O)Nc2ncc([N+](=O)[O-])s2)cc1`, the ΔTm in test [1] was 0.7 °C; in test [2], -0.3 °C; in test [3], 0.7 °C; in test [4], -0.5 °C.

With `Cc1ccc(NC(=O)c2ccc(CN3CCN(C)CC3)cc2)cc1Nc1nccc(-c2cccnc2)n1`, the thermal shift (ΔTm) in test [2] was -0.2 °C; in test [3], 1.7 °C; in test [4] it was -0.2 °C.

For `O=C(O)Cc1ccc(O)c([N+](=O)[O-])c1`, the ΔTm in test [1] was -0.6 °C; in test [2], -0.6 °C; in test [3] it was 0 °C; in test [4] it was -0.3 °C.

On to `CCN(CC)CCNC(=O)c1c(C)[nH]c(/C=C2\C(=O)Nc3ccc(F)cc32)c1C`, for which the ΔTm in test [1] stood at 5.1 °C; in test [2], 2.9 °C; in test [3], 6.5 °C.

For the compound `C#Cc1cccc(Nc2ncnc3cc(OCCOC)c(OCCOC)cc23)c1`, the ΔTm in test [1] was -0.5 °C; in test [2] it was 0 °C; in test [3], 8.2 °C; in test [4], 0.2 °C.

Consider `OC[C@H]1O[C@@H](n2cnc3cc(Cl)c(Cl)cc32)[C@H](O)[C@@H]1O`, for which the thermal shift (ΔTm) in test [1] was 3.1 °C; in test [2], 0.1 °C; in test [3] it was 0.1 °C; in test [4], -0.2 °C.

In the case of `Oc1cccc(-c2nc(N3CCOCC3)c3oc4ncccc4c3n2)c1`, the shift in melting temperature (ΔTm) worked out at 0.6 °C in test [1], 0.1 °C in test [2], 0.3 °C in test [3] and 0.2 °C in test [4].

As for `Nc1cc2ncnc(Nc3cccc(Br)c3)c2cc1N`, the ΔTm in test [1] is 2.2 °C; in test [2], -0.2 °C; in test [3], 5.7 °C; in test [4] it was 0 °C.

Turning to `O=c1c(-c2ccc(O)cc2)coc2cc(O)cc(O)c12`, the shift in melting temperature (ΔTm) in test [1] came out at 1.1 °C; in test [2], 2.5 °C; in test [3], 2.4 °C; in test [4], 1.2 °C.

In the case of `Cc1cc2ncc(-c3ccccc3)nc2cc1C`, the ΔTm in test [1] was 1.4 °C; in test [2], -0.1 °C; in test [3] it was 0.4 °C; in test [4], 1.1 °C.

For the compound `O=C1NC(=O)C(c2c[nH]c3ccccc23)=C1c1c[nH]c2ccccc12`, the ΔTm in test [1] worked out at 4.1 °C; in test [2], 0 °C; in test [3], 4.6 °C; in test [4], 1.2 °C.

`CC(C)N(CCO)c1nc(Nc2cccc(Cl)c2)c2ncn(C(C)C)c2n1`: the ΔTm in test [1] is 5.9 °C; in test [2] it was -0.8 °C; in test [3], 2.9 °C; in test [4], 0.4 °C.

`O=C1Nc2cc(Br)ccc2/C1=C1/Nc2ccccc2/C1=N\O`: the ΔTm in test [1] is 0 °C; in test [2] it was -0.6 °C; in test [3], 4.4 °C; in test [4], 1.3 °C.

Consider `O=C1Nc2ccccc2/C1=C1/Nc2ccccc2/C1=N\O`, for which the ΔTm worked out at 7.7 °C in test [1], 0.8 °C in test [2], 4.7 °C in test [3] and 2.3 °C in test [4].

In the case of `O=c1cc(-c2ccc(O)cc2)oc2cc(O)cc(O)c12`, the ΔTm in test [1] is 3.9 °C; in test [2], -1.9 °C; in test [3], 2.4 °C; in test [4] it was 0.2 °C.

In the case of `O=c1cc(N2CCOCC2)oc2c(-c3ccccc3)cccc12`, the ΔTm in test [1] was 1.3 °C; in test [2], 0 °C; in test [3], -0.1 °C; in test [4], 0.6 °C.

Turning to `CN(C)c1ccc(CC2C(=O)Nc3ccccc32)cc1` (stereo not drawn), the ΔTm in test [1] stood at 2 °C; in test [2], 0.3 °C; in test [3], 0.8 °C; in test [4] it was 0.1 °C.

With `COc1ccc(COc2ccc(Cc3cnc(N)nc3N)cc2OC)cc1`, the ΔTm in test [1] is -1.5 °C; in test [2] it was -0.9 °C; in test [3] it was 0.1 °C.

On to `Cc1nc(Nc2ncc(C(=O)Nc3c(C)cccc3Cl)s2)cc(N2CCN(CCO)CC2)n1`, for which the ΔTm worked out at 0.4 °C in test [1] and 6.8 °C in test [2].

`COc1cc2ncnc(Nc3cccc(O)c3)c2cc1OC`: the ΔTm in test [1] turned out to be 3.8 °C; in test [2] it was 0 °C; in test [3], 3.2 °C.

For `Clc1ccc(Nc2nnc(Cc3ccncc3)c3ccccc23)cc1`, the ΔTm in test [1] stood at 0.1 °C; in test [2], 4 °C.

Turning to `O=C1C=C2C(=Nc3c2c2c(c4c3=NC3=C4CCC=C3)C=NC=2)CC1`, the results for the thermal shift (ΔTm) in test [1], in test [2] and in test [3] were 3.1 °C, -0.3 °C and 6.4 °C, respectively.
